Test results taken from patent US10578610B2, “Peptide regulators of mitochondrial fusion and methods of use” (priority 2016, dated 2020).
Ends that are not written are not given here.

Columns and labels:
Mfn2 KO MEFs = experiment: TAT-minipeptides in a cell model of Mfn2 deficiency; type: cell-based, murine; conditions: 1 μM or 5 μM, 24 hours, data not shown
From the text: Enhancing Mfn1- or Mfn2-mediated mitochondrial fusion with TAT-367-384 Gly has potential to alleviate mitochondrial morphological abnormalities like those evoked in CMT2A caused by nonsense or damaging non-synonymous Mfn2 mutations (Bombelli et al., 2014, JAMA Neurol, 71:1036-1042). It was reasoned that mitochondrial morphology would improve if endogenous normal Mfn1 or Mfn2 were assisted into their active conformations in which the D2 region is extended and/or available for interaction with the D2 region of a second Mfn protein (e.g., FIGS. 1B and 3B). This notion was tested in Mfn2 KO MEFs, a cell model of Mfn2 deficiency. WT MEFs and Mfn2 KO MEFs were treated with 1 μM or 5 μM TAT-367-384Gly peptide or TAT-398-418Gly peptide.

[1] = tested on: mice subjected to cerebral ischemia; experiment: Temporary middle cerebral artery (MCA) occlusion followed by reperfusion; type: in vivo
Method: Studies were done to study the effects of TetherX-1 (SEQ ID NO:24) administration on cerebral tissue damage in mice in which ischemia was induced. In this blinded and placebo-controlled studies, 40 mice were subjected to temporary (40 minutes) middle cerebral artery (MCA) occlusion followed by reperfusion for 24 hours. Brains were removed and analyzed for direct and indirect infarct area and volume. […] Moreover, TetherX-1 administration reduced cerebral deficit (FIG. 20) and cerebral swelling (FIG. 21).

[2] = tested on: mitochondrial mitofusins in WT MEFs; experiment: Confocal localization of FITC-labeled TAT-minipeptides; type: cell-based, murine
Method: (§1) The above results support the premise that TAT-conjugated Mfn2 minipeptides affect mitochondrial fusion by modulating Mfn1 and Mfn2 conformation according to the dynamic structure model depicted in FIGS. 3A-3C. Additional studies were performed to validate this mechanism of action using the minipeptide-Mfn2 binding assay procedure. Confocal localization of FITC-labeled TAT-minipeptides in WT MEFs and Mfn null MEFs (Mfn1/Mfn2 DKO) was used for analysis of interaction between the minipeptides and mitochondrial mitofusins. Mitochondria were stained with MitoTracker Orange; nucleus was stained with Blue Hoechst. Line-scans were generated for the confocal photographs.
(§2) Thus, cell-internalized TAT-conjugated Mfn2 HR1 minipeptides bind specifically to mitochondrial mitofusins.

hMfn2 = target: T1, hMfn2 (Homo sapiens, UniProt O95140); experiment: Mfn2 FRET assay in live cells; type: cell-based; conditions: 5 μM TAT-minipeptide, data not shown
T1 construct: expressed in transfected cells; host or cells: FMK 293T cells (so in the source), Lipofectamine-transfected, pcDNA3.1
T1 sequence (O95140 1-757): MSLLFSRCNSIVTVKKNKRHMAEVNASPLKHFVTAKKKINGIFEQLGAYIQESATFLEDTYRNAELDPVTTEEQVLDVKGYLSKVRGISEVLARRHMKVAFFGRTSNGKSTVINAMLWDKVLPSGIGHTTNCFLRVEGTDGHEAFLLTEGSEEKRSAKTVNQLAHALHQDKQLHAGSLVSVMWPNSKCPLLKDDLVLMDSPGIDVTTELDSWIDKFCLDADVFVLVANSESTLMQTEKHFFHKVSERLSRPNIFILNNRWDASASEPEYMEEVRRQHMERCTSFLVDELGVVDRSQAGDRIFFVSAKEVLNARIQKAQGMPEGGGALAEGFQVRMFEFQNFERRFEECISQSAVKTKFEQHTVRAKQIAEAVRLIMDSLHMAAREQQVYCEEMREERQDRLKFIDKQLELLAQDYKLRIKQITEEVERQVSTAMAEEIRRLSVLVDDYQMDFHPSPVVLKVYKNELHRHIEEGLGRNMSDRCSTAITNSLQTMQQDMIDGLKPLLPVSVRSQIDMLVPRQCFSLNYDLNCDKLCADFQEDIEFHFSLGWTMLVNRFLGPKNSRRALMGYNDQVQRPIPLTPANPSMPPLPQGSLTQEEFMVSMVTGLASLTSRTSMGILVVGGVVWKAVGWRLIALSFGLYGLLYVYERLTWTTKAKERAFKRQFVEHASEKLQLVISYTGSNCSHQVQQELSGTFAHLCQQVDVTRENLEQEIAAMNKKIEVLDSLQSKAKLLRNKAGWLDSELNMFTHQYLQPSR
Method: mCerulean1 and mVenus were cloned onto the 5′ and 3′ ends of hMfn2 cDNA in pcDNA3.1 and confirmed by DNA sequencing. Lipofectamine-transfected biosensor-expressing FMK 293T cells were imaged on an Olympus IX81 ZDC inverted microscope under 40× magnification. mCerulean was excited at 436 nm with emission at 480 nm. mVenus was excited at 500 nm with emission at 535 nm. FRET was imaged with excitation at 436 nm and emission at 535 nm. Studies were performed after adding GTP[…]S (1 mM, Sigma-Aldrich) to suppress Mfn2 GTPase activity. Live cell FRET data were acquired as described (Spiering et al., 2013, Methods Cell Biol, 114:593-609) every 60 seconds for 15 minutes before and 90 minutes after addition of TAT-minipeptides (5 µM).

Mfn1/Mfn2 DKO MEFs = experiment: Confocal localization of FITC-labeled TAT-minipeptides in mitofusin null cells; type: cell-based, murine; conditions: MEFs completely lacking mitofusins
Method: as §1, §2

[3] = 3 mg/kg intravenously 1 hour before ischemia and immediately prior to reperfusion, vs vehicle
[4] = 3 mg/kg intravenously, vs vehicle

“QDRLKFIDKQGELLAQDYKLRGGYGRKKRRQRRR [TAT-398-418Gly]” was tested, and the mitochondrial aspect ratio (Mfn2 KO MEFs) was “exaggerated mitochondrial shortening”, the direct infarct area ([1]; 3 mg/kg intravenously 1 hour before ischemia and immediately prior to reperfusion, 40 minutes MCA occlusion, reperfusion 24 hours, vs vehicle (water)) was “decrease” and the direct infarct volume [1, 3] was “decrease”. The indirect infarct area [1, 3] was “decrease”, the indirect infarct volume [1, 3] was “decrease” and the cerebral deficit [1, 4] was “reduced”. The cerebral swelling [1, 4] was “reduced”, the “localization of FITC-labeled TAT-peptide to mitochondria” value (shortened to “localization”) [2] was “decorated mitochondria” and the “FRET of hMfn2 tagged with mCerulean1 and mVenus” value (hMfn2) was “increased”. For the same sequence, the “localization” value (Mfn1/Mfn2 DKO MEFs) was “not to MEFs completely lacking mitofusins”.

For “QIAEAVRGIMDSLHMAARGGYGRKKRRQRRR [TAT-367-384Gly]”, the mitochondrial aspect ratio (Mfn2 KO MEFs) was “normalized mitochondrial aspect ratio”, the “localization” value [2] was “decorated mitochondria” and the “FRET of hMfn2 tagged with mCerulean1 and mVenus” value (hMfn2) was “had the opposite effect”. For the same sequence, the “localization” value (Mfn1/Mfn2 DKO MEFs) was “not to MEFs completely lacking mitofusins”.
